The test has as its target T1, NLRP3 (Homo sapiens, UniProt Q96P20).
T1 construct: host or cells: PMA-differentiated THP-1 cells
Put plainly: Measurement of IL-1β production (NLRP3 hIL1β EC50), PMA-differentiated THP-1 cells. As to conditions: human IL-1β production; assayed using one or more of the described procedures. The test is classed as cell-based. As to the method: THP-1 cells were purchased from the American Type Culture Collection and sub-cultured according to instructions from the supplier. Prior to experiments, cells were cultured in RPMI 1640 containing 10% heat inactivated FBS, penicillin (100 units/ml) and streptomycin (100 μg/ml), and maintained in log phase prior to experimental setup. Prior to the experiment THIP-1 were treated with PMA (Phorbol 12-myristate 13-acetate) (10 μg/ml) for 24 hours. The day of the experiment the media was removed and attaching cells were treated with trypsin for 2 minutes, cells were then collected, washed with PBS (phosphate buffer saline), spin down, resuspended in 2% heat inactivated FBS with RPMI at a concentration of 1×10^6 cells/ml, and 100 μl was plated in a 96 well plate. Compounds were dissolved in dimethyl sulfoxide (DMSO) and added to the culture medium to achieve desired concentration (e.g. 100, 30, 10, 3, 1, 0.3 or 0.1 μM). Cells were incubated with compounds for 4 hours. Cell free supernatant was collected and the production of IL-1β was evaluated by ELISA. A vehicle only control was run concurrently with each experiment. Final DMSO concentration was 1%.
THP-1 cells were purchased from the American Type Culture Collection and sub-cultured according to instructions from the supplier. Prior to experiments, cells were cultured in RPMI 1640 containing 10% heat inactivated FBS, penicillin (100 units/ml), streptomycin (100 μg/ml), HEPES (10 mM) and sodium pyruvate (1 mM) and maintained in log phase prior to experimental setup. Prior to the experiment, THP-1 cells were treated with PMA (Phorbol 12-myristate 13-acetate) (20 μg/ml) overnight. The day of the experiment, the media was removed and attached cells were treated with trypsin for 2 minutes, cells were then collected, washed with PBS (phosphate buffer saline), pelleted by centrifugation and resuspended in 2% heat inactivated FBS with RPMI at a concentration of 50,000 cells/well in a 384 well plate. Cell free supernatant was collected and the production of IL-1β was evaluated by ELISA. Compounds were dissolved in dimethyl sulfoxide (DMSO) and added to the culture medium to achieve desired concentration (e.g. 100, 30, 10, 3, 1, 0.3 or 0.1 μM). Cells were incubated with compounds for 2 hours. A vehicle only control was run concurrently with each experiment. Final DMSO concentration was 1%.
Serial dilutions of compounds in DMSO were added to low volume 384 well plates at 100 nl/well using an ECHO 550 acoustic dispenser (Labcyte) to achieve final starting concentration of 10 μM in assay.
THP-1 cells in RPMI (Gibco, 11875) media with 10% FBS at a density of 1×10^6 cell/ml in a T175 flask were treated with a final concentration of phorbol 12-myristate 13-acetate (PMA) (Sigma,P1585) of 50 ng/ml overnight at 37° C. at 5% CO2 for differentiation. Cells were harvested the next day after rinsing well with dPBS using 0.5% trypsin. A cell solution was prepared of 1×10^6 cells/ml for 50,000 cells in 50 μl/well in RPMI media with 2% FBS. Cells were plated using a multichannel pipette onto the compound dilutions in Greiner, 384 well, black clear bottom tissue culture treated plates (781090). The plates were incubated in 37° C. incubator at 5% CO2 for 2 hours.
After the 2 hour incubation, the cell plates were spun in the centrifuge for 5 minutes at 1200 rpm. Using the Felix (CyBio), 8 μl of the supernatant was transferred to 384 well, low volume, white proxy plates. (Perkin Elmer, 6008230). A human IL1beta hTRF kit was used to analyze the supernatant (CISBIO, 62HIL1BPEG). The kit instructions were followed for preparing the IL1Beta standard curve and then the antibodies from the kit were diluted 1:40 rather than 1:20 as kit instructed. Once combined, the antibodies were added across the plates, 5 μl/well. The plates were sealed and incubated at 4° C. overnight. The plates were then read on the Perkin Elmer EnVision at 665/615 nm using the hTRF laser.

Experimental findings from patent US12492200B2, “NLRP3 modulators” (INNATE TUMOR IMMUNITY, INC., priority 2020, dated 2025) are described below.

T1 sequence (Q96P20 whole entry): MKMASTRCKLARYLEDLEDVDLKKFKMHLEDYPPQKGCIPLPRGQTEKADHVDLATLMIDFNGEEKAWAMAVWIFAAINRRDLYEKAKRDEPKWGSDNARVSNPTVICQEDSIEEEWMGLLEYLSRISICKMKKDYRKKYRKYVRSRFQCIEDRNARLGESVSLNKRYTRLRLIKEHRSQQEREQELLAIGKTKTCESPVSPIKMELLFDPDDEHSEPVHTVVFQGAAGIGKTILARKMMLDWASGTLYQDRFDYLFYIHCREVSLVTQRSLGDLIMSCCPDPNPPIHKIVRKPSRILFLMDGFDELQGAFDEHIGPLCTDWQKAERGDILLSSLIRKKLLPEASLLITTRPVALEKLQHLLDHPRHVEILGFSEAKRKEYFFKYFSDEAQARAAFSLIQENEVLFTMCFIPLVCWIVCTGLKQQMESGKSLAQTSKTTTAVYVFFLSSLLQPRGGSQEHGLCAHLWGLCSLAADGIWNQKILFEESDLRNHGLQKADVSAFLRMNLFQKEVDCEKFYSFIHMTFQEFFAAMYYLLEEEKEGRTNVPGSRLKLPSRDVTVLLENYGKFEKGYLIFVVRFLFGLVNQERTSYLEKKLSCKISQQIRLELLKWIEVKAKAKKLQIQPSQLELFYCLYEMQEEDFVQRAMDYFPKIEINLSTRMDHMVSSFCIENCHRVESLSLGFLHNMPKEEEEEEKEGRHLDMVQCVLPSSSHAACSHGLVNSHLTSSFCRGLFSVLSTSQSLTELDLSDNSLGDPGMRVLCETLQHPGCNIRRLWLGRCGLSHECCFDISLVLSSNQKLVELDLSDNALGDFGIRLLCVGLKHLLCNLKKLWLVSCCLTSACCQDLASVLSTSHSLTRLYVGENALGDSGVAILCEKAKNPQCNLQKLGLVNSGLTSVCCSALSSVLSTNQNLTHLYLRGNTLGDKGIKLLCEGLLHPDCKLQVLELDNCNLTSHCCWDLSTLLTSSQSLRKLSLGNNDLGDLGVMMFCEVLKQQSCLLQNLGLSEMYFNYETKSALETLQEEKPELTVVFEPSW

`CC(C)C(=O)N1CCC[C@H](c2nc3c(N)nc4cc(-c5cc[nH]n5)ccc4c3[nH]2)C1` [Example 26]: the response was half-maximal at 1200 nM (EC50).
With `Nc1nc2cc(-c3cc[nH]n3)ccc2c2[nH]c(C[C@H]3CCCN3C(=O)c3ccccc3)nc12` [Example 84] the figure was 2500 nM; with `CCn1c([C@H]2CCCN(C(=O)C3CCC3)C2)nc2c(N)nc3cc(-c4cc[nH]n4)ccc3c21` [Example 44], 220 nM.
On to `CCCC(=O)N1CCC[C@H](c2nc3c(N)nc4cc(-c5cc[nH]n5)ccc4c3[nH]2)C1` [Example 27], for which the EC50 (in general, the concentration that produces a half-maximal response) amounted to 890 nM.
With `COCCC(=O)N1CCC[C@H](c2nc3c(N)nc4cc(-c5cc[nH]n5)ccc4c3n2C(C)C)C1` [Example 59] the figure was 970 nM; with `C#CCC(=O)N1CCC[C@H](c2nc3c(N)nc4cc(-c5cc[nH]n5)ccc4c3n2CC)C1` [Example 49], 620 nM; with `CCC(=O)N1CCC[C@H](c2nc3c(N)nc4cc(-c5cc[nH]n5)ccc4c3[nH]2)C1` [Example 25], 1100 nM.
As to `N#CC1(C(=O)N2CCC[C@H]2Cc2nc3c(N)nc4cc(-c5cc[nH]n5)ccc4c3[nH]2)CCC1` [Example 94], the EC50 stood at 6200 nM.
For the compound `Nc1nc2cc(-c3cc[nH]n3)ccc2c2[nH]c(C[C@@H]3CCCN3C(=O)C3CCC3)nc12` [Example 89], the EC50 was 2800 nM.
With `Nc1nc2cc(-c3cc[nH]n3)ccc2c2[nH]c([C@@H]3CCN(C(=O)c4ccccc4)C3)nc12` [Example 77], a half-maximal effect (EC50) was put at 4100 nM.
With `Nc1nc2cc(-c3cc[nH]n3)ccc2c2[nH]c([C@@H]3CCCNC3)nc12` [Example 7, (R)-2-(Piperidin-3-yl)-7-(1H-pyrazol-3-yl)-1H-imidazo[4,5-c]quinolin-4-amine] the figure was 1730 nM; with `Nc1nc2cc(-c3cc[nH]n3)ccc2c2[nH]c([C@H]3CCCN(C(=O)C4CC(F)(F)C4)C3)nc12` [Example 32], 2500 nM.
The compound `Nc1nc2cc(-c3cc[nH]n3)ccc2c2[nH]c(C[C@@H]3CCCN3C(=O)C3(C(F)(F)F)CC3)nc12` [Example 93] came in with an EC50 of 3200 nM.
The result for `CCN1CCC(Cc2nc3c(N)nc4cc(-n5cccn5)ccc4c3[nH]2)C1` (stereo not drawn) [Example 22, 2-((1-Ethylpyrrolidin-3-yl)methyl)-7-(1H-pyrazol-1-yl)-1H-imidazo[4,5-c]quinolin-4-amine] reads 1400 nM.
The result for “(S)-1-(2-((4-amino-7-(1H-pyrazol-3-yl)-1H-imidazo[4,5-c]quinolin-2-yl)methyl)pyrrolidin-1-yl)propane-1-one [Example 18]” reads 4900 nM.
The result for `Nc1nc2cc(-c3cc[nH]n3)ccc2c2[nH]c([C@H]3CCCN(C(=O)C4(C(F)(F)F)CC4)C3)nc12` [Example 36] reads 2800 nM.
`Nc1nc2cc(-c3cc[nH]n3)ccc2c2[nH]c([C@H]3CCN(C(=O)c4ccccc4)C3)nc12` [Example 76] showed an EC50 of 5500 nM.
The result for `N#CC1(C(=O)N2CCC[C@@H]2Cc2nc3c(N)nc4cc(-c5cc[nH]n5)ccc4c3[nH]2)CCCC1` [Example 83] reads 6600 nM.
With `CC(=O)N1CC[C@H](c2nc3c(N)nc4cc(-c5cc[nH]n5)ccc4c3[nH]2)C1` [Example 71] the figure was 4900 nM; with `Nc1nc2cc(-c3cc[nH]n3)ccc2c2[nH]c(C[C@@H]3CCCN3)nc12` [Example 17, (S)-7-(1H-pyrazol-3-yl)-2-(pyrrolidin-2-ylmethyl)-1H-imidazo[4,5-c]quinolin-4-amine], 1200 nM; with `CC(C)(C)C(=O)N1CCC[C@H]1Cc1nc2c(N)nc3cc(-c4cc[nH]n4)ccc3c2[nH]1` [Example 88], 1900 nM.
The result for `CCn1c([C@H]2CCCN(C(=O)c3ccccc3)C2)nc2c(N)nc3cc(-c4cc[nH]n4)ccc3c21` [Example 46] reads 180 nM; that for `CCn1c([C@H]2CCCN(C(=O)CCOC)C2)nc2c(N)nc3cc(-c4cc[nH]n4)ccc3c21` [Example 47], 640 nM.
The compound `N#CC1(C(=O)N2CCC[C@@H](c3nc4c(N)nc5cc(-c6cc[nH]n6)ccc5c4[nH]3)C2)CCC1` [Example 69] returned an EC50 of 2000 nM.
For the compound `CCC(=O)N1CCC[C@@H]1Cc1nc2c(N)nc3cc(-c4cc[nH]n4)ccc3c2[nH]1` [Example 15, (R)-1-(2-((4-Amino-7-(1H-pyrazol-3-yl)-1H-imidazo[4,5-c]quinolin-2-yl)methyl)pyrrolidin-1-yl)propane-1-one], the EC50 was 1800 nM.
The result for `COCC(=O)N1CCC[C@H](c2nc3c(N)nc4cc(-c5cc[nH]n5)ccc4c3[nH]2)C1` [Example 34] reads 2200 nM; that for `CC(C)(C)OC(=O)N1CC[C@@H](c2nc3c(N)nc4cc(-c5cc[nH]n5)ccc4c3[nH]2)C1` [Example 10, tert-Butyl (R)-3-(4-amino-7-(1H-pyrazol-3-yl)-1H-imidazo[4,5-c]quinolin-2-yl)pyrrolidine-1-carboxylate], 750 nM.
On to `COC(=O)N1CCC(Cc2nc3c(N)nc4cc(-c5cc[nH]n5)ccc4c3[nH]2)C1` (stereo not drawn) [Example 19, Methyl 3-((4-amino-7-(1H-pyrazol-3-yl)-1H-imidazo[4,5-c]quinolin-2-yl)methyl)pyrrolidine-1-carboxylate], for which the EC50 was 1600 nM.
With `Nc1nc2cc(-c3cc[nH]n3)ccc2c2[nH]c([C@H]3CCCN(C(=O)C4CC4)C3)nc12` [Example 29] the figure was 2400 nM; with `Nc1nc2cc(-c3cc[nH]n3)ccc2c2[nH]c(C[C@@H]3CCCN3C(=O)C3CC3(F)F)nc12` (stereo partly drawn) [Example 91], 4100 nM; with `CCCC(=O)N1CCC[C@@H](c2nc3c(N)nc4cc(-c5cc[nH]n5)ccc4c3[nH]2)C1` [Example 62], 1200 nM.
The result for `CC(C)CC(=O)N1CCC[C@H](c2nc3c(N)nc4cc(-c5cc[nH]n5)ccc4c3n2C(C)C)C1` [Example 53] reads 230 nM; that for `Nc1nc2cc(-c3cc[nH]n3)ccc2c2[nH]c(C[C@@H]3CCCN3C(=O)c3ccccc3)nc12` [Example 96], 11000 nM.
`Nc1nc2cc(-c3cc[nH]n3)ccc2c2[nH]c([C@@H]3CCCN(C(=O)C4(C(F)(F)F)CC4)C3)nc12` [Example 68] had an EC50 of 2300 nM.
With `Nc1nc2cc(-c3cc[nH]n3)ccc2c2[nH]c([C@H]3CCCNC3)nc12` [Example 2, (S)-2-(Piperidin-3-yl)-7-(1H-pyrazol-3-yl)-1H-imidazo[4,5-c]quinolin-4-amine] the figure was 510 nM; with `Nc1nc2cc(-c3cc[nH]n3)ccc2c2[nH]c([C@H]3CCCN(C(=O)C4CCC4)C3)nc12` [Example 30], 680 nM; with `CC(C)(C)C(=O)N1CCC[C@@H](c2nc3c(N)nc4cc(-c5cc[nH]n5)ccc4c3[nH]2)C1` [Example 61], 2300 nM.
With `Nc1nc2cc(-c3cc[nH]n3)ccc2c2[nH]c(C[C@H]3CCCN3C(=O)C3(C(F)(F)F)CC3)nc12` [Example 81] the figure was 4000 nM; with `CC(C)n1c([C@H]2CCCN(C(=O)C3CCC3)C2)nc2c(N)nc3cc(-c4cc[nH]n4)ccc3c21` [Example 54], 240 nM.
With `CC(C)C(=O)N1CCC[C@@H](c2nc3c(N)nc4cc(-c5cc[nH]n5)ccc4c3[nH]2)C1` [Example 60] the figure was 4600 nM.
Compound `CCC(=O)N1CCC[C@H](c2nc3c(N)nc4cc(-c5cc[nH]n5)ccc4c3n2C(C)C)C1` [Example 5, (S)-1-(3-(4-Amino-1-isopropyl-7-(1H-pyrazol-3-yl)-1H-imidazo[4,5-c]quinolin-2-yl)piperidin-1-yl)propan-1-one] gave an EC50 of 330 nM.
As for `CCn1c([C@H]2CCCN(C(=O)C3CC3(F)F)C2)nc2c(N)nc3cc(-c4cc[nH]n4)ccc3c21` (stereo partly drawn) [Example 48], the response was half-maximal at 80 nM (EC50).
